Laboratory results as given in patent US20230381142A1, “ANTILEISHMANIAL COMPOUNDS, COMPOSITIONS AND USE THEREOF” (TRUSTEES OF BOSTON UNIVERSITY, priority 2022, published 2023).
Like-named read-outs stand apart in the source and are kept apart here.

Legend:
[1] = test system: L. donovani intracellular amastigotes infecting THP-1 macrophages; experiment: GSK intramacrophage L. donovani assay (LD AMMAC, inMac; Assay Conditions C); assay type: cell-based; details: Leishmania donovani
Procedure: Assay Conditions C: The intramacrophage Leishmania donovani activity assay was performed as described in Antimicrob Agents Chemother (2013) 57(7):2913-22.
(§1) The intramacrophage Leishmania donovani activity assay (LD AMMAC) at GlaxoSmithKline was performed as described.
(§2) Given the literature precedents described above and the apparent narrow tolerance for R^3 substitutions observed in the primary screen compounds, a thorough and methodical assessment was undertaken of tolerated groups at the three points of diversity (R^1/R^2/R^3) for the core. At this stage of the project, all analogues were assessed using a battery of assays performed in-house at GlaxoSmithKline. For antileishmanial activity, GSK's inMac assay was utilized. This assay provides two readouts of compound potency: average number of intracellular amastigotes per infected cell (AMMAC) EC50, percentage of infected cells per well (INFCELL) EC50, as well as a toxicity output derived from the number of host cells (MAC EC50). In addition, compounds were assessed for toxicity against HepG2 cells (HEPG2 EC50). Here, AMMAC EC50 values were focused on for relative potency assessments. […] It should be noted that for all compounds assessed in this project, the measured toxicity against THP-1 macrophages either equaled or exceeded that of HepG2 hepatocytes, therefore the MAC SI is used here as the more conservative estimate of therapeutic index.

[2] = GSK inMac assay, host cell toxicity readout (LD MAC); assay type: cell-based, human; details: human
Procedure: as §1, §2

[3] = THP-1 cells, values marked c, read-out: L. donovani amastigotes EC50 (THP-1 cells)
[4] = footnote c, read-out: THP-1 Host Cell CC50
[5] = values marked c: THP-1 cells, read-out: L. donovani amastigotes EC50 (μM, THP-1 or B10R cells)

Structure (SMILES) | EC50 [1, 3] [µM] | EC50 [1, 5] [µM] | CC50 [2, 4] [µM] | CC50 ([2]; host THP-1 cells) [µM]
CC(C)Cc1nn(-c2ccc(OC(F)(F)F)cc2)c2c1C(c1ccccc1)NC2=O (centres unmarked) [CMLD009657] | – | 12.6 | – | ≥ 50.1
CC(C)Cc1n[nH]c2c1C(c1ccc(F)cc1)N(Cc1ccc(C(F)(F)F)cn1)C2=O (centres unmarked) [CMLD010848] | 39.8 | – | > 50 | –
COc1ccc(N2C(=O)c3[nH]nc(CCc4ccccc4)c3C2c2ccc(F)cc2)cc1 (centres unmarked) [CMLD010849] | 6.3 | – | 25.1 | –
CC(C)Cc1n[nH]c2c1C(c1ccc(F)cc1)N(c1ccc(OC(F)(F)F)cc1)C2=O (centres unmarked) [CMLD010885] | 3.2 | – | 7.9 | –
COc1ccc(N2C(=O)c3[nH]nc(CC(C)C)c3C2c2cncc(OC)c2)cc1 (centres unmarked) [CMLD010886] | 10 | – | 20 | –
COc1ccc(N2C(=O)c3[nH]nc(CC(C)C)c3C2c2ccncn2)cc1 (centres unmarked) [CMLD010887] | > 50 | – | > 50 | –
COc1ccc(N2C(=O)c3[nH]nc(CC(C)C)c3C2c2cccc(F)c2)cc1 (centres unmarked) [CMLD010890] | 5 | – | 12.6 | –
COc1ccc(N2C(=O)c3[nH]nc(CC(C)C)c3C2C2CCCCC2)cc1 (centres unmarked) [CMLD010892] | 7.9 | – | 25.1 | –
COc1ccc(N2C(=O)c3[nH]nc(CC(C)C)c3C2c2ccccc2Br)cc1 (centres unmarked) [CMLD010894] | 0.5 | – | 25.1 | –
COc1ccc(N2C(=O)c3[nH]nc(CC(C)C)c3C2c2cccc(C(F)(F)F)c2)cn1 (centres unmarked) [CMLD010898] | 2 | – | 20 | –
COc1ccc(N2C(=O)c3[nH]nc(CC(C)C)c3C2C2CCCCC2)cn1 (centres unmarked) [CMLD010903] | 20 | – | 31.6 | –
CC(C)Cc1n[nH]c2c1C(c1cccc(C(F)(F)F)c1)N(c1ccc(N(C)C)cc1)C2=O (centres unmarked) [CMLD010925] | 7.9 | – | 20 | –
Cc1cc(F)ccc1C1c2c(CC(C)C)n[nH]c2C(=O)N1c1ccc(-n2ccnc2)cc1 (centres unmarked) [CMLD010926] | 1.3 | – | 25.1 | –
COc1ccc(N2C(=O)c3[nH]nc(CC(C)C)c3[C@@H]2c2ccc(F)cc2C)cc1 [CMLD010949] | 0.5 | – | 39.8 | –
COc1ccc(N2C(=O)c3[nH]nc(CC(C)C)c3[C@H]2c2ccc(F)cc2C)cc1 [CMLD010950] | 6.3 | – | 31.6 | –
COc1ccc(N2C(=O)c3[nH]nc(CC(C)C)c3[C@@H]2c2ccccc2Br)cn1 [CMLD010976] | 1 | – | 20 | –
COc1ccc(N2C(=O)c3[nH]nc(CC(C)C)c3C2C2CCCC2)cc1 (centres unmarked) [CMLD010978] | 12.6 | – | 20 | –
CCCn1nc(CC(C)C)c2c1C(=O)N(c1ccc(OC)cc1)C2c1ccc(F)cc1 (centres unmarked) [CMLD010982] | 5 | – | 25.1 | –

Structure (SMILES) | EC50 [1, 3] [µM] | EC50 [1, 5] [µM] | CC50 [2, 4] [µM] | CC50 ([2]; host THP-1 cells) [µM]
C=CCn1nc(CC(C)C)c2c1C(=O)N(c1ccc(OC)cc1)C2c1ccc(F)cc1 (centres unmarked) [CMLD010985] | 2.5 | – | 31.6 | –
COc1ccc(N2C(=O)c3c(c(CC(C)C)nn3C)C2c2ccc(F)cc2)cc1 (centres unmarked) [CMLD010989] | 1.6 | – | 25.1 | –
CCCn1nc2c(c1CC(C)C)C(c1ccc(F)cc1)N(c1ccc(OC)cc1)C2=O (centres unmarked) [CMLD010990] | – | 7.9 | – | 25.1
COc1ccc(N2C(=O)c3[nH]nc(CC(C)C)c3C2c2cncs2)cc1 (centres unmarked) [CMLD010991] | 15.9 | – | > 50 | –
CC(C)Cc1n[nH]c2c1[C@H](c1ccc(F)cc1)N(c1ccc3ncnn3c1)C2=O [CMLD010993] | 10 | – | 25.1 | –
COc1ccc(N2C(=O)c3[nH]nc(CC(C)C)c3C2c2ccccc2OC)cc1 (centres unmarked) [CMLD010994] | 0.5 | – | 25.1 | –
COc1ccc(N2C(=O)c3[nH]nc(CC(C)C)c3C2c2cc(C(F)(F)F)ccc2C(F)(F)F)cc1 (centres unmarked) [CMLD010996] | 6.3 | – | 25.1 | –
CC(C)Cc1n[nH]c2c1C(c1ccccc1Cl)N(c1ccc(-n3ccnc3)cc1)C2=O (centres unmarked) [CMLD010998] | 6.3 | – | ≥ 50.1 | –
COc1ccc(N2C(=O)c3[nH]nc(CC(C)C)c3C2c2ccc(OC)nc2)cc1 (centres unmarked) [CMLD011027] | > 50 | – | > 50 | –
COc1ccc(N2C(=O)c3[nH]nc(CC(C)C)c3C2c2cc(F)nc(F)c2)cc1 (centres unmarked) [CMLD011028] | > 50 | – | > 50 | –
CC(C)Cc1n[nH]c2c1C(c1ccc(F)cc1)N(c1ccc(O)cc1)C2=O (centres unmarked) [CMLD011029] | 5 | – | 39.8 | –
CC(C)Cc1n[nH]c2c1C(c1ccc(F)cc1)N(C1CCOCC1)C2=O (centres unmarked) [CMLD011030] | 31.6 | – | > 50 | –
COc1ccc(N2C(=O)c3[nH]nc(CC(C)C)c3C2c2ccc(C(=O)O)cc2)cc1 (centres unmarked) [CMLD011032] | > 50 | – | > 50 | –
COC(=O)c1ccc(N2C(=O)c3[nH]nc(CC(C)C)c3C2c2ccc(F)cc2)cc1 (centres unmarked) [CMLD011033] | 1.6 | – | 31.6 | –
COC(=O)c1ccc(C2c3c(CC(C)C)n[nH]c3C(=O)N2c2ccc(OC)cc2)cc1 (centres unmarked) [CMLD011034] | 25.1 | – | 39.8 | –
CO[C@H]1CC[C@H](N2C(=O)c3[nH]nc(CC(C)C)c3C2c2ccc(F)cc2)CC1 (some centres unmarked) [CMLD011036] | 25.1 | – | > 50 | –
CC(=O)OCC(CO)N1C(=O)c2[nH]nc(CC(C)C)c2C1c1ccc(F)cc1 (centres unmarked) [CMLD011037] | – | ≥ 50.1 | – | ≥ 50.1

Further lines, with some results ahead:

EC50 [1, 3] [µM] | EC50 [1, 5] [µM] | Structure (SMILES) | CC50 [2, 4] [µM] | CC50 ([2]; host THP-1 cells) [µM]
10 | – | CC(C)Cc1n[nH]c2c1C(c1ccc(F)cc1)N(c1ccc(C(C)(C)C)cc1)C2=O (centres unmarked) [BUCMD00816] | > 50 | –
> 50 | – | CC(C)Cc1n[nH]c2c1C(c1ccc(F)cc1)N(C(CO)CO)C2=O (centres unmarked) [BUCMD00817] | > 50 | –
6.3 | – | COc1ccc(N2C(=O)c3[nH]nc(CC(C)C)c3C2c2cccc(C(F)(F)F)c2)cc1 (centres unmarked) [CMLD007432] | 15.9 | –
20 | – | COc1cccc(N2C(=O)c3[nH]nc(CC(C)C)c3C2c2ccsc2)c1 (centres unmarked) [CMLD010880] | 39.8 | –
7.9 | – | COc1cccc(N2C(=O)c3[nH]nc(CC(C)C)c3C2c2ccccc2Cl)c1 (centres unmarked) [CMLD010881] | 15.8 | –
15.9 | – | COc1ccc(N2C(=O)c3[nH]nc(CC(C)C)c3C2C2CCN(Cc3ccccc3)CC2)cc1 (centres unmarked) [CMLD010882] | 20 | –
31.6 | – | COc1cncc(N2C(=O)c3[nH]nc(CC(C)C)c3C2c2ccc(F)cc2)c1 (centres unmarked) [CMLD010883] | > 50 | –
6.3 | – | COc1ccc(N2C(=O)c3[nH]nc(CC(C)C)c3C2c2ccc(Br)cc2)cc1 (centres unmarked) [CMLD010889] | 15.9 | –
7.9 | – | COc1ccc(N2C(=O)c3[nH]nc(CC(C)C)c3C2c2cccc(Br)c2)cc1 (centres unmarked) [CMLD010891] | 25.1 | –
12.6 | – | COc1cccc(N2C(=O)c3[nH]nc(CC(C)C)c3C2c2ccc(F)cc2)c1 (centres unmarked) [CMLD010895] | 31.6 | –
4 | – | COc1cc(N2C(=O)c3[nH]nc(CC(C)C)c3C2c2ccc(F)cc2)cc(OC)c1OC (centres unmarked) [CMLD010896] | 3.2 | –
1.3 | – | CC(C)Cc1n[nH]c2c1C(c1ccc(F)cc1)N(c1ccc(Br)cc1)C2=O (centres unmarked) [CMLD010897] | 15.9 | –
4 | – | CCc1ccc(N2C(=O)c3[nH]nc(CC(C)C)c3C2c2ccc(F)cc2)cc1 (centres unmarked) [CMLD010899] | 20 | –
1.6 | – | CCOc1ccc(N2C(=O)c3[nH]nc(CC(C)C)c3C2c2ccc(F)cc2)cc1 (centres unmarked) [CMLD010900] | 20 | –
– | ≥ 50.1 | CC(C)Cc1n[nH]c2c1C(c1cccc(C(F)(F)F)c1)N(c1ccc(-n3ccnc3)cc1)C2=O (centres unmarked) [CMLD010924] | – | 39.8
4 | – | COc1ccc(N2C(=O)c3[nH]nc(-c4ccc(CC(C)C)cc4)c3C2c2ccc(F)cc2)cc1 (centres unmarked) [CMLD010979] | 7.9 | –
5 | – | COc1ccc(N2C(=O)c3[nH]nc(-c4ccc5c(c4)CCC5)c3C2c2ccc(F)cc2)cc1 (centres unmarked) [CMLD010980] | 7.9 | –
6.3 | – | COc1ccc(N2C(=O)c3[nH]nc(CCC=C(C)C)c3C2c2ccc(F)cc2)cc1 (centres unmarked) [CMLD010981] | 20 | –
– | 6.3 | C=CCn1nc2c(c1CC(C)C)C(c1ccc(F)cc1)N(c1ccc(OC)cc1)C2=O (centres unmarked) [CMLD010984] | – | 31.6
– | 7.9 | COc1ccc(N2C(=O)c3nn(C)c(CC(C)C)c3C2c2ccc(F)cc2)cc1 (centres unmarked) [CMLD010988] | – | 25.1
20 | – | COc1ccc(N2C(=O)c3[nH]nc(CC(C)C)c3C2c2ccc(F)cc2)c(OC)c1 (centres unmarked) [CMLD010992] | 31.6 | –
1.6 | – | C=CCCc1n[nH]c2c1C(c1ccc(F)cc1)N(c1ccc(OC)cc1)C2=O (centres unmarked) [CMLD011024] | 3.2 | –
0.5 | – | C=C(C)CCc1n[nH]c2c1C(c1ccc(F)cc1)N(c1ccc(OC)cc1)C2=O (centres unmarked) [CMLD011025] | 1.6 | –
12.6 | – | COc1ccc(CN2C(=O)c3[nH]nc(CC(C)C)c3C2c2ccc(F)cc2)cc1 (centres unmarked) [CMLD011026] | 31.6 | –
> 50 | – | CC(C)Cc1n[nH]c2c1C(c1ccc(F)cc1)N(c1ccc(C(=O)O)cc1)C2=O (centres unmarked) [CMLD011031] | > 50 | –
5 | – | CCC(C)(COC(C)=O)CN1C(=O)c2[nH]nc(CC(C)C)c2C1c1ccc(F)cc1 (centres unmarked) [CMLD011035] | 25.1 | –
